Consider 17 molecules from patent US20220227781A1, “PYRIMIDINE DERIVATIVE INHIBITING GROWTH OF CANCER CELL AND MEDICINAL USE THEREOF” (ONCOBIX CO., LTD., priority 2019, published 2022).

A value given as a limit tells only on which side of the number the result lay.

The assay deals with EXON 20 Insertion (NPG) Ba/F3 Cell (Homo sapiens, UniProt P00533, INS772GNP, cells depend on it). As to the kind of experiment: Measurement of inhibitory effect on cancer cell growth (MTT assay). The settings on record: read-out: Measured value of inhibitory effect on cancer cell growth (IC50), EXON 20 Insertion (NPG) Ba/F3 Cell, Ba/F3 cells expressing EGFR with NPG inserted at D770_N771, 72 hours treatment, read at 595 nm. A general note: Formazan colour is commonly taken as a measure of viable cells.
Chain of EXON 20 Insertion (NPG) Ba/F3 Cell (P00533 with tags, fused parts or gaps INS772GNP): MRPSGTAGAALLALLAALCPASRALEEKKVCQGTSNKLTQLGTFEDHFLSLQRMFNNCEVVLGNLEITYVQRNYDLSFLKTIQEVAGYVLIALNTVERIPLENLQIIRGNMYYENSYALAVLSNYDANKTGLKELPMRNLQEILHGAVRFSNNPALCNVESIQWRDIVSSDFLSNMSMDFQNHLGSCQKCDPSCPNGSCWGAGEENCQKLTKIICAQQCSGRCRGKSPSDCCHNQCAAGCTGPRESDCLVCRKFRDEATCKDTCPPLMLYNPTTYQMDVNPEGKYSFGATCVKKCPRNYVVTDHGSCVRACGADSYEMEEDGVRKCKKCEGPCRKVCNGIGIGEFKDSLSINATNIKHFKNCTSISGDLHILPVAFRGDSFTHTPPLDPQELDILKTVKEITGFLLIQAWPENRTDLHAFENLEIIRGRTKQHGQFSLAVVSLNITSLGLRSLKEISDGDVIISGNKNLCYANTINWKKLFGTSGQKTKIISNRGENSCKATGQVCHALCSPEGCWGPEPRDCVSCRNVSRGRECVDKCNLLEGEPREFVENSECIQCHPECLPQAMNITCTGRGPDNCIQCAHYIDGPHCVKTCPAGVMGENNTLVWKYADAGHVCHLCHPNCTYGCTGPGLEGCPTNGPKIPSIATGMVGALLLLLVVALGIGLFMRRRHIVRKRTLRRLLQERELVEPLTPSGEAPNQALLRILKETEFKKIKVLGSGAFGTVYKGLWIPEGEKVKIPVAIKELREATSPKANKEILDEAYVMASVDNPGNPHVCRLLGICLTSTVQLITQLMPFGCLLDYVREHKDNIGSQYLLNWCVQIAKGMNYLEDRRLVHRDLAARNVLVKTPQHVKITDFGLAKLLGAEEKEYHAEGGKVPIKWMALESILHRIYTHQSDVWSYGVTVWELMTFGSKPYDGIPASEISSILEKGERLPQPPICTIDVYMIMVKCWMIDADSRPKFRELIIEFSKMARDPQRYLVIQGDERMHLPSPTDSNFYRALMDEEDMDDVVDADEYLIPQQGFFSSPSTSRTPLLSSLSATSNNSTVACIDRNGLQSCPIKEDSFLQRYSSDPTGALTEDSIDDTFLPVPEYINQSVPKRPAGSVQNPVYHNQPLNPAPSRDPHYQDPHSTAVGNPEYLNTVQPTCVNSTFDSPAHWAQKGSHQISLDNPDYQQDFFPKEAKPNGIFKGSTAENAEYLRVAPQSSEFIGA
Experimental: First, the present invention used a vector in which NPG of 3 amino acids were added to D770_N771 site of the most frequent alterations, and used the Ba/F3 cell line for expression of these genes.
Pre-constructed stable cells of 1×10^4 cells were placed in a 96 well plate and incubated overnight, and then the compounds of Examples were treated at a dose dependent manner After 72 hours, MTT reagent was added, and after 3 hours, stop buffer (10% SDS) was added.
As for `COc1cc(N2CCC(N(C)C)CC2)c(NC(C)C)cc1Nc1nc(Nc2ccccc2N(C)S(C)(=O)=O)c2sccc2n1` [Example 3, N-(2-((2-((4-(4-(dimethylamino)piperidin-1-yl)-5-(isopropylamino)-2-methoxyphenyl)amino)thieno[3,2-d]pyrimidin-4-yl)amino)phenyl)-N-methylmethanesulfonamide], the GI50 fell in the range of 300 to 1000 nM.
Under `C=CC(=O)Nc1cc(Nc2ncc(C(=O)OC3CC3)c(Nc3ccccc3N(C)S(C)(=O)=O)n2)c(OC)cc1N(C)CCN(C)C` [Example 16, CYCLOPROPYL 2-((5-acrylamido-4-((2-(dimethylamino)ethyl)(methyl)amino)-2-methoxyphenyl)amino)-4-((2-(N-methylmethylsulfonamido)phenyl)amino)pyrimidine-5-carboxylate] stands < 100 nM; under `COc1cc(N2CCC(N(C)C)CC2)c(NC(C)C)cc1Nc1ncc(Cl)c(Nc2ccccc2N(C)S(C)(=O)=O)n1` [Example 6, N-(2-((5-chloro-2-((4-(4-(dimethylamino)piperidin-1-yl)-5-(isopropylamino)-2-methoxyphenyl)amino)pyrimidin-4-yl)amino)phenyl)-N-methylmethanesulfonamide], 300 to 1000 nM; under `C=CC(=O)Nc1cc(Nc2nc(Nc3ccccc3N(C)S(C)(=O)=O)c3sccc3n2)c(OC)cc1N(C)CCN(C)C` [Example 8, N-(2-((2-(dimethylamino)ethyl)(methyl)amino)-4-methoxy-5-((4-((2-(N-methylmethylsulfon amido)phenyl)amino)thieno[3,2-d]pyrimidin-2-yl)amino)phenyl)acrylamide], 100 to 300 nM.
Under `C=CC(=O)Nc1cc(Nc2ncc(Cl)c(Nc3ccccc3NS(C)(=O)=O)n2)c(OC)cc1N(C)CCN(C)C` [Example 10, N-(5-((5-chloro-4-((2-(methylsulfonamido)phenyl)amino)pyrimidin-2-yl)amino)-2-((2-(dimethylamino)ethyl)(methyl)amino)-4-methoxyphenyl)acrylamide] stands < 100 nM.
Under `C=CC(=O)Nc1cc(Nc2ncc(Cl)c(Nc3cc(F)ccc3N(C)S(C)(=O)=O)n2)c(OC)cc1N(C)CCN(C)C` [Example 13, N-(5-((5-chloro-4-((5-fluoro-2-(N-methylmethylsulfonamido)phenyl)amino)pyrimidin-2-yl)amino)-2-((2-(dimethylamino)ethyl)(methyl)amino)-4-methoxyphenyl)acrylamide] stands < 100 nM.
Consider `C=CC(=O)Nc1cc(Nc2cc(Nc3ccccc3N(C)S(C)(=O)=O)ncn2)c(OC)cc1N(C)CCN(C)C` [Example 17, N-(2-((2-(dimethylamino)ethyl)(methyl)amino)-4-methoxy-5-((6-((2-(N-methylmethylsulfon amido)phenyl)amino)pyrimidin-4-yl)amino)phenyl)acrylamide], for which the GI50 was < 100 nM.
In the case of `C=CC(=O)Nc1cc(Nc2nc(Nc3ccccc3N(C)S(C)(=O)=O)c3sccc3n2)c(OC)cc1N1CCC(N2CCN(C)CC2)CC1` [Example 7, N-(4-methoxy-5-((4-((2-(N-methylmethylsulfonamido)phenyl)amino)thieno[3,2-d]pyrimidin-2-yl)amino)-2-(4-(4-methylpiperazin-1-yl)piperidin-1-yl)phenyl)acrylamide], the GI50 lay within 100 to 300 nM.
Under `COc1cc(N(C)CCN(C)C)c(NC(C)C)cc1Nc1nc(Nc2ccccc2N(C)S(C)(=O)=O)c2sccc2n1` [Example 2, N-(2-((2-((4-((2-(dimethylamino)ethyl)(methyl)amino)-5-(isopropylamino)-2-methoxyphenyl)amino)thieno[3,2-d]pyrimidin-4-yl)amino)phenyl)-N-methylmethanesulfonamide] stands 300 to 1000 nM.
`C=CC(=O)Nc1cc(Nc2ncc(Cl)c(Nc3cc(F)ccc3NS(C)(=O)=O)n2)c(OC)cc1N(C)CCN(C)C` [Example 14, N-(5-((5-chloro-4-((5-fluoro-2-(methylsulfonamido)phenyl)amino)pyrimidin-2-yl)amino)-2-((2-(dimethylamino)ethyl)(methyl)amino)-4-methoxyphenyl)acrylamide]: the GI50 is < 100 nM.
As for `COc1cc(N2CCC(N3CCN(C)CC3)CC2)c(NC(C)C)cc1Nc1ncc(Cl)c(Nc2ccccc2N(C)S(C)(=O)=O)n1` [Example 5, N-(2-((5-chloro-2-((5-(isopropylamino)-2-methoxy-4-(4-(4-methylpiperazin-1-yl)piperidin-1-yl)phenyl)amino)pyrimidin-4-yl)amino)phenyl)-N-methylmethanesulfonamide], the figure is 300 to 1000 nM; as for `COc1cc(N(C)CCN(C)C)c(NC(C)C)cc1Nc1ncc(Cl)c(Nc2ccccc2N(C)S(C)(=O)=O)n1` [Example 1, N-(2-((5-chloro-2-((4-((2-(dimethylamino)ethyl)(methyl)amino)-5-(isopropylamino)-2-methoxyphenyl)amino)pyrimidin-4-yl)amino)phenyl)-N-methylmethanesulfonamide], 300 to 1000 nM.
Under `C=CC(=O)Nc1cc(Nc2nc(Nc3ccccc3N(C)S(C)(=O)=O)c3sccc3n2)c(OC)cc1N1CCC(N(C)C)CC1` [Example 9, N-(2-(4-(dimethylamino)piperidin-1-yl)-4-methoxy-5-((4-((2-(N-methylmethylsulfonamido)phenyl)amino)thieno[3,2-d]pyrimidin-2-yl)amino)phenyl)acrylamide] stands 100 to 300 nM; under `C=CC(=O)Nc1cc(Nc2ncc(Cl)c(Nc3ccc4nccnc4c3N(C)S(C)(=O)=O)n2)c(OC)cc1N(C)CCN(C)C` [Example 11, N-(5-((5-chloro-4-((5-(N-methylmethylsulfonamido)quinoxalin-6-yl)amino)pyrimidin-2-yl)amino)-2-((2-(dimethylamino)ethyl)(methyl)amino)-4-methoxyphenyl)acrylamide], < 100 nM.
As for `COc1cc(N2CCC(N3CCN(C)CC3)CC2)c(NC(C)C)cc1Nc1nc(Nc2ccccc2N(C)S(C)(=O)=O)c2sccc2n1` [Example 4, N-(2-((2-((5-(isopropylamino)-2-methoxy-4-(4-(4-methylpiperazin-1-yl)piperidin-1-yl)phenyl)amino)thieno[3,2-d]pyrimidin-4-yl)amino)phenyl)-N-methylmethanesulfonamide], the figure is 300 to 1000 nM; as for `C=CC(=O)Nc1cc(Nc2ncc(Cl)c(Nc3ccc4nccnc4c3NS(C)(=O)=O)n2)c(OC)cc1N(C)CCN(C)C` [Example 12, N-(5-((5-chloro-4-((5-(methylsulfonamido)quinoxalin-6-yl)amino)pyrimidin-2-yl)amino)-2-((2-(dimethylamino)ethyl)(methyl)amino)-4-methoxyphenyl)acrylamide], < 100 nM.
Regarding `C=CC(=O)Nc1cc(Nc2ncc(C(=O)OC(C)C)c(Nc3ccccc3N(C)S(C)(=O)=O)n2)c(OC)cc1N(C)CCN(C)C` [Example 15, ISOPROPYL 2-((5-acrylamido-4-((2-(dimethylamino)ethyl)(methyl)amino)-2-methoxyphenyl)amino)-4-((2-(N-methylmethylsulfonamido)phenyl)amino)pyrimidine-5-carboxylate], the GI50 is < 100 nM.
